Tests used:
c-myb:GFP = c-myb:GFP zebrafish blastomere embryo culture chemical screen; format: cell-based; settings: approximately 30 μM, 2 days
Procedure: The inventors have developed an embryo culture system in which embryos bearing a c-myb:GFP transgenic reporter were dissociated during sphere stage at 4 hours post fertilization (hpf), and cultured in gelatin-coated 384 well plates with chemicals for 2 days until imaging for fluorescent reporter activity (FIG. 1). This fluorescent transgene is expressed in a similar pattern to the endogenous gene. […] This transgene responds to inducers of hematopoiesis, as myb is a marker of hematopoietic stem cells (HSCs).
The image analysis software (ImageJ and MatLab) was used to identify hits that downregulate c-myb:GFP zebrafish embryo cultures by a z-score less than […] and more than 70% downregulation. Hits were assessed by eye and scored for morphology. Toxic compounds that caused poor embryoid body (EB) formation were assessed a 4.
Zebrafish cell culture: Zebrafish embryo cultures were adapted from Xu (2013). Dissociated blastomere cells were grown in medium composed of 85% LDF medium, 5% heat inactivated FBS, and 10% zebrafish day 1 embryo extract. LDF medium contains 50% Leibowitz's L-15 (Invitrogen), 20% DMEM (Invitrogen), and 30% DMEM/F-12 (Invitrogen), supplemented with 0.018% sodium bicarbonate, 15 mM HEPES (Invitrogen), 1% L-Glutamine (Invitrogen), 10 nM sodium selenite (Sigma-Aldrich), 1% N2 (Invitrogen), 2% B27 (Invitrogen), 1% Penicillin-Streptomycin (Invitrogen), and 0.2% Primocin (InvivoGen).
Screening procedures: Two 384-well plates were coated with 0.1% gelatin for each chemical library plate. Males of the c-myb:GFP transgenic line were set up overnight with casper females and kept separated until morning when they were mixed for mating. Embryos were washed twice with E3 embryo water and treated with pronase to remove chorions. Dechorionated embryos were washed with E3 embryo water and collected into tubes containing media. Embryos were disassociated by shaking ˜10 times and were filtered through a 40 μm nylon mesh filter. Resulting single cells were diluted with medium and aliquoted 30 μl per well into the 384-well plates at approximately 2 embryo equivalents per well. Chemicals were dispensed immediately afterwards with an Agilent Bravo robot. Chemicals from the libraries were diluted 300 times with LDF medium and were aliquoted 10 μl per well for a final concentration of approximately 33 μM. […] Cells were cultured in a 28° C. incubator with 5% CO2. Two days later, cells were imaged by a Yokogawa Cell Voyager 7000 imager. Images were analyzed by ImageJ and MatLab and confirmed by eye. […]
Culture of dissociated blastomere cells: Stage-matched zebrafish blastomeres were dissociated at 4 hpf and grown in medium composed of 85% LDF medium, 5% FBS, and 10% embryo extract. LDF medium contains 50% Leibowitz's L-15 (Invitrogen), 20% DMEM (Invitrogen), and 30% DMEM/F-12 (Invitrogen), supplemented with 2% B27 (Gibco), 15 mM HEPES (Gibco), 1% L-glutamine (Gibco), 1% N2 (Gibco), 10 nM sodium selenite (Sigma), 100 ug/mL piperacillin (Sigma), 10 ug/mL ciprofloxacin (GenHunter), and 0.018% sodium bicarbonate (Gibco). Embryo extract was made by homogenizing 24 hpf wildtype AB embryos in HBSS (Gibco).

ACC = settings: Phase II trials in ACC; cited from earlier work
[1] = Table 2, c-myb:GFP embryo cultures, average across two plates
[2] = Table 2, c-myb:GFP embryo cultures
[3] = Table 3, GFP signal in blastomere embryo culture screen

| Compound | Z-Score (c-myb:GFP; [1]) | other results |
| --- | --- | --- |
| COc1ccc2c(c1)c(CC(=O)O)c(C)n2Cc1ccc(F)cc1 [1-(4-Fluorobenzyl)-5-methoxy-2-methylindole-3-acetic acid] | −1.726 |  |
| Cc1nsc(NC(=O)N2CCCC(Cc3ccc(F)cc3)C2)n1 (centres unmarked) [3-(4-fluorobenzyl)-N-(3-methyl-1,2,4-thiadiazol-5-yl)piperidine-1-carboxamide] | −3.287 |  |
| Cc1nn(C)cc1-c1ccnc(NC(CC(C)(C)C)c2cccnc2)n1 (centres unmarked) [4-(1,3-dimethyl-1H-pyrazol-4-yl)-N-(3,3-dimethyl-1-pyridin-3-ylbutyl)pyrimidin-2-amine] | −2.29 |  |
| COc1ccc(N2CCN(C(=O)Nc3nc(C)ns3)CC2(C)C)cc1 [4-(4-methoxyphenyl)-3,3-dimethyl-N-(3-methyl-1,2,4-thiadiazol-5-yl)piperazine-1-carboxamide] | −2.357 |  |
| Cc1nsc(NC(=O)N2CCC(Sc3ccccc3C)CC2)n1 [4-[(2-methylphenyl)thio]-N-(3-methyl-1,2,4-thiadiazol-5-yl)piperidine-1-carboxamide] | −2.228 |  |
| C=C(C)[C@H]1CC=C(C(=O)O)CC1 [(−)-Perillic acid] | −1.848 | Fold Change (c-myb:GFP; [2]): −0.7327 |
| CCCCOCCOc1nc(-c2ccc(C(=O)O)c(F)c2)sc1C [AC 261066, 4-[4-(2-Butoxyethoxy-)-5-methyl-2-thiazolyl]-2-fluorobenzoic acid] | −1.697 | Fold Change (c-myb:GFP; [2]): −0.7734; Fold Change (c-myb:GFP; [3]): −0.7734; Z-Score (c-myb:GFP; [3]): −1.697 |
| CC1(C)CCC(C)(C)c2cc(C(=O)Nc3ccc(C(=O)O)cc3)ccc21 [AM-580, 4-[(5,6,7,8-Tetrahydro-5,5,8,8-tetramethyl-2-naphthalenyl)carboxamido]benzoic acid] | −1.631 | Fold Change (c-myb:GFP; [2]): −0.9547; Fold Change (c-myb:GFP; [3]): −0.9547; Z-Score (c-myb:GFP; [3]): −1.631 |
| CC(C)C[C@H](NC(=O)[C@H](Cc1ccccc1)NC(=O)c1cnccn1)B(O)O [Bortezomib] |  | Objective Response Rate (ACC): 0% |
| O=c1c2ccccc2[nH]c(=S)n1CCN1CCC(=C(c2ccc(F)cc2)c2ccc(F)cc2)CC1 [Diacylglycerol Kinase Inhibitor II] | −1.493 |  |
| CO[C@H]1C[C@@H]2CC[C@@H](C)[C@@](O)(O2)C(=O)C(=O)N2CCCC[C@H]2C(=O)O[C@H]([C@H](C)C[C@@H]2CC[C@@H](OCCO)[C@H](OC)C2)CC(=O)[C@H](C)/C=C(\C)[C@@H](O)[C@@H](OC)C(=O)[C@H](C)C[C@H](C)/C=C/C=C/C=C/1C [Everolimus] |  | Objective Response Rate (ACC): 0% |
| O=C(c1ccc(OCCN2CCCCC2)cc1)c1c(-c2ccc(O)cc2)sc2cc(O)ccc12 [Evista] | −3.318 |  |
| CC1(C)O[C@@H]2C[C@H]3[C@@H]4C[C@H](F)C5=CC(=O)C=C[C@]5(C)[C@H]4[C@@H](O)C[C@]3(C)[C@]2(C(=O)CO)O1 [FluniSOLIDe] | −3.085 |  |
| COc1cc2ncnc(Nc3ccc(F)c(Cl)c3)c2cc1OCCCN1CCOCC1 [Gefitinib] |  | Objective Response Rate (ACC): 0% |
| Cl.FC(F)(F)c1cc(CO[C@H]2CCCN[C@H]2c2ccccc2)cc(C(F)(F)F)c1 [L-733,060 hydrochloride] | −1.715 | Fold Change (c-myb:GFP; [2]): −0.752 |
| Cc1c(C(C)Nc2ncnc3sccc23)cnn1C (centres unmarked) [N-[1-(1,5-dimethyl-1H-pyrazol-4-yl)ethyl]thieno[2,3-d]pyrimidin-4-amine] | −2.83 |  |
| O=C(Cc1cccc(O)c1)NCc1cc2cc(Cl)ccc2[nH]1 [N-[(5-chloro-1H-indol-2-yl)methyl]-2-(3-hydroxyphenyl)acetamide] | −3.297 |  |
| Nc1nc2ccc(OC(F)(F)F)cc2s1 [Riluzole] | −6.521 |  |
| O=C(O[C@H]1[C@H](Oc2ccccc2COC(=O)C2(O)C=CCCC2=O)O[C@H](CO)[C@@H](O)[C@@H]1O)c1ccccc1 (some centres unmarked) [TREMULACIN] | −3.9299 |  |
| C/C(=C\c1ccc(C(=O)O)cc1)c1ccc2c(c1)C(C)(C)CCC2(C)C [TTNPB, 4-[(E)-2-(5,6,7,8-Tetrahydro-5,5,8,8-tetramethyl-2-naphthalenyl)-1-propenyl]benzoic acid] | −1.6339 | Z-Score (c-myb:GFP; [3]): −1.634 |

From patent US10668039B2, “Methods for treatment of adenoid cystic carcinoma” (THE CHILDREN'S MEDICAL CENTER CORPORATION, priority 2016, dated 2020)
